Assay results taken from ChEMBL document CHEMBL1201862, “PubChem BioAssay data set” (2004).
Calls of active or inactive are those of the source.

Columns and labels:
[1] = biological target: Fructose-bisphosphate aldolase (Mycobacterium tuberculosis, UniProt P9WQA3); assay: Fluorescence-based biochemical high throughput dose response assay for inhibitors of the fructose-bisphosphate aldolase (FBA) of M. tuberculosis.; format: functional
[2] = biological target: T1, Scavenger receptor class B member 1 (Mus musculus, UniProt Q61009); assay: blockers of DiI-HDL lipid transfer via SR-BI – cell-based, ldlA[mSR-BI] CHO, DiI fluorescence, dry powder, set 10, dose response (AID 624029); format: functional
[3] = biological target: T1, Scavenger receptor class B member 1; assay: mouse SR-BI DiI-HDL transfer blockers – ldlA[mSR-BI] CHO cells, fluorescence plate reader, dry powder, set 9, dose response (AID 623880); format: functional, cell-based
[4] = cell viability loss, ATP luminescence – CellTiter-Glo, 24 h, powder samples, set 7, cytotoxicity control for SR-BI HDL uptake inhibitor project, dose response (AID 624026); format: functional, cell-based
[5] = biological target: Beta-lactamase (Salmonella choleraesuis (strain SC-B67), UniProt Q5J463)
[6] = biological target: Beta-lactamase (Pseudomonas aeruginosa, UniProt Q79MP6);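 further: biochemical dose-response test of metallo-beta-lactamase enzyme inhibition, read out by epi-absorbance; purified recombinant IMP-1 metallo-beta-lactamase with nitrocefin as substrate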
[7] = HEK293 Cytotoxicity Assay Measured in Cell-Based System Using Plate Reader - 7071-01_Inhibitor_Dose_CherryPick_Activity_Set2.; format: functional
[8] = system: HeLa; assay: viability loss in HeLa cells – cell-based, ATP luminescence, cherry-pick samples, cytotoxicity control, dose response (AID 687004); format: functional; settings: Homo sapiens
[9] = intracellular Trypanosoma cruzi inhibitors in host cells – cell-based, plate reader, cherry-pick samples, set 3, dose response (AID 651818); format: functional;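 further: compounds incubated with infected cells for about four days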
[10] = system: HEK293; assay: viability loss in HEK293T cells – cell-based, ATP luminescence, cherry-pick samples, cytotoxicity control, dose response (AID 687005); format: functional; settings: Homo sapiens;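 further: cells exposed to compound for 48 hours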
[11] = biological target: Steroidogenic factor 1 (Homo sapiens, UniProt Q13285); assay: Counterscreen for inverse agonists of the liver receptor homolog-1 (LRH-1; NR5A2): Luminescence-based cell-based high throughput dose response assay to identify inverse agonists of the Steroidogenic Factor 1 Nuclear Receptor (SF1; NR5A1).; format: functional
[12] = nonselective StAR promoter luciferase inhibitors – cell-based, luminescence, luciferase reporter, counter-screen for LRH-1 inverse agonist project, dose response (AID 651969); format: functional
[13] = biological target: Nuclear receptor subfamily 5 group A member 2 (Homo sapiens, UniProt O00482); format: functional, cell-based;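 further: HEK293T cells transfected with LRH-1 and a StAR promoter luciferase reporter; potency for inhibitors that lower LRH-1 driven reporter light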
Nuclear receptor subfamily 5 group A member 2, sequence (O00482 whole entry): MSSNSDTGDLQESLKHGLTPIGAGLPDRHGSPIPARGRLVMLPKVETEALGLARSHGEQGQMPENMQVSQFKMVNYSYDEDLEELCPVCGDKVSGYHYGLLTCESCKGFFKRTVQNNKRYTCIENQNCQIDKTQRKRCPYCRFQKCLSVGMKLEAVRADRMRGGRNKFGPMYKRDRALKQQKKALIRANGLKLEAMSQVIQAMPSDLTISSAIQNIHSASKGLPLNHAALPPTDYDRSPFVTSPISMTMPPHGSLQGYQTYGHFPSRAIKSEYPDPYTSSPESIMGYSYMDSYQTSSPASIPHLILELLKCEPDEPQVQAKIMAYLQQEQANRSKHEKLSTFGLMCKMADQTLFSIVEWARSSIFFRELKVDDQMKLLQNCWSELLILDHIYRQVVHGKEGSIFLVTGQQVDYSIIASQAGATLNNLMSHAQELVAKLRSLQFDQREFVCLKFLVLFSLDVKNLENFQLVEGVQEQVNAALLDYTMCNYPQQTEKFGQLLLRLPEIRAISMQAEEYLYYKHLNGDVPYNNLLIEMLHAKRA

T1 sequence (Q61009 whole entry): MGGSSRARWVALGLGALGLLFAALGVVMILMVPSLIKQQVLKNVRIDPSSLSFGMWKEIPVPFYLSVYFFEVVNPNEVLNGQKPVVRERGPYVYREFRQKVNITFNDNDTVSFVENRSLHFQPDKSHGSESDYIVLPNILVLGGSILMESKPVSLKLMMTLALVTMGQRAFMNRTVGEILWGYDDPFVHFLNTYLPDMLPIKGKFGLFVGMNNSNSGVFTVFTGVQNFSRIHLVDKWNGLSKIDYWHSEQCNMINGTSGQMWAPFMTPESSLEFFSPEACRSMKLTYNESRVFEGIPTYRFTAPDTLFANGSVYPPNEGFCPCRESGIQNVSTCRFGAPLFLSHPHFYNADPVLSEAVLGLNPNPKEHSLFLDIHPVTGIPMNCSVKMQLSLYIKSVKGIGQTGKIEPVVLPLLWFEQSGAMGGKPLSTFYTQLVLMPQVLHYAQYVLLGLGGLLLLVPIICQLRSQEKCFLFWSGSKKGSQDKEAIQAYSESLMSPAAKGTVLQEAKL
Beta-lactamase (Pseudomonas aeruginosa, UniProt Q79MP6), sequence (Q79MP6 whole entry): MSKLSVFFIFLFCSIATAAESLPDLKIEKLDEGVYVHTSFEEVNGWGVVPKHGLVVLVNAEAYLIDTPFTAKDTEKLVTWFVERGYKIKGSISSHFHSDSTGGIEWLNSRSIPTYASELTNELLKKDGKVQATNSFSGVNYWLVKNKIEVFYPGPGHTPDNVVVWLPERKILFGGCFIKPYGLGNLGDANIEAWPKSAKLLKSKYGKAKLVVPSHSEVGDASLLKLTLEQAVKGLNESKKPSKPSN
Beta-lactamase (Salmonella choleraesuis (strain SC-B67), UniProt Q5J463), sequence (Q5J463 whole entry): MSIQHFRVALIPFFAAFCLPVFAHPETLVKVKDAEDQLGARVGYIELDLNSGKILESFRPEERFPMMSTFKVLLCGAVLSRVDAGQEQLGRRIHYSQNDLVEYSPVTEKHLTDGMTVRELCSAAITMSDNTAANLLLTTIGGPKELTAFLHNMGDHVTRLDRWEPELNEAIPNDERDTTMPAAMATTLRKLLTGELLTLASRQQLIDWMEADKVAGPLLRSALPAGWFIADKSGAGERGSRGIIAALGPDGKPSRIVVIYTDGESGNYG
Steroidogenic factor 1, sequence (Q13285 whole entry): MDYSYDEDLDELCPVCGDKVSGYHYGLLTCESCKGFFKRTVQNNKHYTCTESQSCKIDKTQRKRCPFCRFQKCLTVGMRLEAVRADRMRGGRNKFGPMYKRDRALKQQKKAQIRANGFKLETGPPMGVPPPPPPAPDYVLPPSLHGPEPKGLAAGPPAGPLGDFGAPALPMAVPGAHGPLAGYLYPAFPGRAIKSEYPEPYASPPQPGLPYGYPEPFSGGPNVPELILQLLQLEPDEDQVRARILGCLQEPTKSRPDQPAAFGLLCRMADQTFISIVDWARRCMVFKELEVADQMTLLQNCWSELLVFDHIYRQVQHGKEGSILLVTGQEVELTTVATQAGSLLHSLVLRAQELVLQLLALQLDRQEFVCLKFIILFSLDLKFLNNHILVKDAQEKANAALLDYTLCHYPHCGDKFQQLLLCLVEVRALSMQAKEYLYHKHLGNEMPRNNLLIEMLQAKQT
Fructose-bisphosphate aldolase, sequence (P9WQA3 whole entry): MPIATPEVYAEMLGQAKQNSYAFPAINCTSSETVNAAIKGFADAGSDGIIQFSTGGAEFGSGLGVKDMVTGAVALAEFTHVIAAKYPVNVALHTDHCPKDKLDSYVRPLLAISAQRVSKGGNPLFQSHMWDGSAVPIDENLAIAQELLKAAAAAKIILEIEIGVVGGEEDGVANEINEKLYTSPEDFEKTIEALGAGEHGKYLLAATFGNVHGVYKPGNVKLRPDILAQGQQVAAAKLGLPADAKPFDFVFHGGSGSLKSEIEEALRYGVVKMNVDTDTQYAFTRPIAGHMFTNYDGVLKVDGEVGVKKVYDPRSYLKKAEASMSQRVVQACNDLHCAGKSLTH

For `CCCNC(=O)c1c(N)n(-c2ccc(S(N)(=O)=O)cc2)c2nc3ccccc3nc12`, the IC50 [1] was 0.673 µM (active).

In the case of `CC(C)(C)OC(=O)N1CCN(c2ccc(NC(=O)c3cc([N+](=O)[O-])ccc3Cl)cc2)CC1`, the AC50 [2] was 0.953 µM (active), the AC50 [3] was 0.503 µM (active) and the AC50 [4] was > 70 µM (inactive).

With `CCN(CC)c1ccc2cc(C=O)c(=O)oc2c1` the IC50 [5] was 26.7 µM (inactive) and the IC50 [6] was 57.9 µM (inactive).

For `C[C@H](CO)N1C[C@H](C)[C@H](CN(C)Cc2ccc(-c3ccccc3)cc2)Oc2c(NC(=O)c3ccncc3)cccc2C1=O`, the AC50 [7] was 14.2 µM (active), the AC50 [8] was > 52 µM (inactive) and the AC50 [9] was 0.08 µM (active). For the same compound, the AC50 [10] was 14.2 µM (active).

For `COc1cc(/C=N/n2nnnc2N)ccc1OCc1c(C)no[n+]1[O-]`, the IC50 [11] was 6.23 µM (active), the IC50 [12] was 35.9 µM (inactive) and the IC50 [13] was 12.4 µM (inactive).
